Like-named read-outs stand apart in the source and are kept apart here.
Columns and labels:
HEK293 cells = test: Cytotoxicity (cell count) in HEK293 cells; settings: for cytotoxicity: HEK293 cells
Description: In terms of charactering cytotoxicity, compounds were given a low rating if the cell count was >75% of control levels, a medium rating if the cell count was between 50 and 75% of control wells, and a high rating if the cell count was less than 50% of control levels.

Parkin = test: GFPu assay in HEK293 cells transfected with wild type Parkin (aggresome formation / proteasome function); assay type: cell-based, human; settings: for aggresome formation (qualitative, GFPu screen): LOPAC screen hits
Description: A summary of the finalized automation scheme is outlined in FIG. 12. Briefly, cells were manually transfected with Parkin using the Fugene Reagent (Roche) and then incubated for three hours at 37° C. […] Compounds were then added to the cell plate at a final concentration of 10 uM using the Multimek™ Automated Pipettor. Compounds were incubated with cells for 45 hours at 37° C. and then the media was gently aspirated with the Multimek. A mixture of 1 ug/ml Hoechst dye and 4% paraformaldehyde were then added to the cells for 40 minutes at room temperature using the Titertek Multidrop™ Lab System. Cell plates were subsequently washed using the Tecan PowerWasher and then read on the Cellomcis ArrayScan. A detailed protocol outlining this process step by step is shown in Example 8.
This example describes a protocol for the GFPu Assay in 96-well format. It will be appreciated that the protocol can be readily modified for other multi-well formats and that certain parameters can vary. […] Dose-response curves are generated using methods known in the art. Typically, serial 2-fold or 3-fold dilutions (usually in the range 10 uM to 50 pM) are tested.
1) HEK293 cells stably expressing GFP are cultured in DMEM containing 10% FBS, glutamine 2 mM and G418 sulfate at 600 μg/ml.
2) HEK 293 cells are harvested using PBS containing 5 mM EDTA. 180 μl of HEK293 cells at 67,000 cells/ml are then plated onto Costar PDL coated plates (#3667). After seeding cells on the plate, we let them sit for 30 minutes at room temperature in the tissue culture hood before placing them back into the incubator. This treatment may help reduce edge effects and is optional.
3) Incubate the plate overnight at 37° C./5% CO2 in the incubator.
4) A typical transfection cocktail is created as follows: Mix 50 ml of serum free DMEM with 1.087 ml of Fugene and wait 5 minutes at room temperature. Next add 375 μg of Parkin DNA or control vector, gently mix and incubate 35-45 minutes at room temperature.
5) Add 20 μl of transfection cocktail to each well of the plate and place back in the incubator for three hours at 37° C.
6) Add 20 μl of compound to all relevant wells. Final in-well concentration for compound is 10 μM. The DMSO concentration final in-well is 0.2%. Compound plates are diluted using serum free DMEM.
7) Plates are then incubated for 45 hours at 37° C. and 5% CO2.
8) Aspirate media out of wells.
9) Add […] a mixture containing 1 μg/ml Hoechst dye and 4% paraformaldehyde in 0.1M NaPhosphate buffer for 40 minutes at room temperature.
10) Wash with PBS containing calcium and magnesium and leave 200 μl in well.
11) Read on the ArrayScan using the Target Activation Bioapplication. […]
(§1) Dose response curves were generated by exposing cells to compounds at various concentrations. […] “Hill” refers to the Hill Slope.

CFTR = test: GFPu assay selectivity screen, cells transfected with CFTR; assay type: cell-based; settings: 10 uM to about 78 nM
Description: (§2) The first is the RING finger ligase NRDP1 as a molecule structurally and functionally similar to Parkin. The second is the Cystic Fibrosis Transmembrane Conductance Regulator (CFTR) as a molecule that is a twelve-pass membrane channel protein, and structurally not related to Parkin.
as §1

NRDP1 = test: GFPu assay selectivity screen, cells transfected with NRDP1; assay type: cell-based; settings: for IC50: GFPu assay, NRDP1 transfected cells, 10 uM to about 78 nM, read-out: NRDP IC50
Description: as §2, §1

aggresome formation = settings: Johnston et al., 1998; cited from earlier work
[1] = tested on: cAMP dependent protein kinase; settings: at higher concentrations (25-50 uM); cited from earlier work
aldehyde dehydrogenase = settings: at higher concentrations (25-50 uM); cited from earlier work
3-PI-dependent kinase 1 = molecular target: T1, 3-PI-dependent kinase 1 (Homo sapiens, UniProt O15530); settings: at higher concentrations (25-50 uM); cited from earlier work
T1 sequence (O15530 1-556): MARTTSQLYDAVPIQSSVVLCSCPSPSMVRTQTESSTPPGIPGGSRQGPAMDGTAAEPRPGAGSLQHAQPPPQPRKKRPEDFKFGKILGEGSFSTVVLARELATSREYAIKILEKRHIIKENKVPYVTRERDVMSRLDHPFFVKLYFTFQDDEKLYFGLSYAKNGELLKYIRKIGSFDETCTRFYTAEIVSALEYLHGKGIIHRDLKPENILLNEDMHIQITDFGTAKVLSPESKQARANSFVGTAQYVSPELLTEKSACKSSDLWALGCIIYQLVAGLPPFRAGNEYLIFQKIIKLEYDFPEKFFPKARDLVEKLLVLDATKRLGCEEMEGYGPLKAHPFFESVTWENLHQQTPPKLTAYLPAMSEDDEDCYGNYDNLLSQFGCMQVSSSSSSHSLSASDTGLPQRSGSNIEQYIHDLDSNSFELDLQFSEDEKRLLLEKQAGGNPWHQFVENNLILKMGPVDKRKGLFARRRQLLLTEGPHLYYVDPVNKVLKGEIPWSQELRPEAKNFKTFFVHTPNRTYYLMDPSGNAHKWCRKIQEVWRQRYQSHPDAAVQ

[2] = dose response, eight 2-fold dilutions 10 uM to about 78 nM
[3] = Parkin expressing HEK293 cells, read-out: IC50 in the GFPu assay
[4] = Homo sapiens, HEK293, GFPu assay, Parkin transfected cells, eight 2-fold dilutions 10 uM to about 78 nM, read-out: Parkin IC50
[5] = Homo sapiens, Parkin expressing HEK293 cells, read-out: IC50 in the GFPu assay

SMILES	IC50 (CFTR) [µM]	IC50 (NRDP1) [µM]	TC50 (HEK293 cells; human) [µM]	IC50 (Parkin; [4]) [µM]	aggresome formation (qualitative, GFPu screen) (Parkin)	IC50 (Parkin; [5]) [µM]	further results
Cc1ccc(S(=O)(=O)N[C@@H](Cc2ccccc2)C(=O)CCl)cc1 [ELN477056, TPCK]	> 10	5.47	–	–	–	–	TC50 (HEK293 cells; [2]): >10; IC50 (Parkin; [3]): 9.25 µM
O=c1[nH]cc(F)c(=O)[nH]1 [ELN29019, 5-fluoruracil]	> 10	1.6	–	–	–	–	TC50 (HEK293 cells): > 10 µM; IC50 (Parkin; [3]): 9 µM
CC[C@]1(O)C[C@@H]2CN(CCc3c([nH]c4ccccc34)[C@@](C(=O)OC)(c3cc4c(cc3OC)N(C)[C@H]3[C@@](O)(C(=O)OC)[C@H](OC(C)=O)[C@]5(CC)C=CCN6CC[C@]43[C@@H]65)C2)C1 [ELN477062, vinblastine]	> 10	> 10	< 0.078	< 0.078	inhibitors of aggresome formation	–	–
O=c1c(O)c(-c2cc(O)c(O)c(O)c2)oc2cc(O)cc(O)c12 [ELN476493, myricetin]	> 10	> 10	> 10	> 10	–	–	inhibition at 10 µM (Parkin; Homo sapiens, HEK293, at 10 μM, LOPAC screen): 59%; % inhibition upon dose-response curve follow-up (Parkin; dose-response curve follow-up, 40% inhibition threshold): < 40%
COc1cc2c(c(OC)c1OC)-c1ccc(OC)c(=O)cc1[C@@H](NC(C)=O)CC2 [ELN476311, colchicine]	–	–	–	–	inhibitors of aggresome formation	–	TC50 (HEK293 cells; [2]): <0.078
COC(=O)Nc1nc2ccc(C(=O)c3cccs3)cc2[nH]1 [ELN475312, nocodazol]	> 10	> 10	< 0.078	1.07	inhibitors of aggresome formation	–	–
O=C1c2c(O)ccc(O)c2C(=O)c2c(NCCNCCO)ccc(NCCNCCO)c21 [ELN476491, mitoxantrone]	1.58	1.5	6.53	< 0.078	–	< 0.078	–
CC[C@]1(O)C[C@H]2CN(CCc3c([nH]c4ccccc34)[C@@](C(=O)OC)(c3cc4c(cc3OC)N(C=O)[C@H]3[C@@](O)(C(=O)OC)[C@H](OC(C)=O)[C@]5(CC)C=CCN6CC[C@]43[C@@H]65)C2)C1 [ELN477063, vincristine]	> 10	> 10	< 0.078	< 0.078	inhibitors of aggresome formation	–	–
COc1cc([C@@H]2c3cc4c(cc3[C@H](O)[C@H]3COC(=O)[C@H]23)OCO4)cc(OC)c1OC [ELN476767, podophyllotoxin]	> 10	> 10	–	< 0.078	inhibitors of aggresome formation	< 0.078	TC50 (HEK293 cells; [2]): <0.078
O=C(O)CCCc1ccc(N(CCCl)CCCl)cc1 [ELN29018, chlorambucil]	> 10	–	–	7.25	decreased aggresome formation	–	cytotoxicity (HEK293 cells): did not exhibit much cytotoxicity; TC50 (HEK293 cells; [2]): >10; NRDP % @ 10 (NRDP1; @ 10): 32% @ 10
Nc1ncn([C@@H]2O[C@H](CO)[C@@H](O)[C@H]2O)c(=O)n1 [ELN476201, 5-azacytidine]	> 10	5.81	> 10	5.36	–	5.36	–
N[C@@H](Cc1ccc(N(CCCl)CCCl)cc1)C(=O)O [ELN476469, melphalan]	> 10	> 10	–	6.06	decreased aggresome formation	–	cytotoxicity (HEK293 cells): did not exhibit much cytotoxicity; TC50 (HEK293 cells; [2]): >10
CN(Cc1cnc2nc(N)nc(N)c2n1)c1ccc(C(=O)N[C@@H](CCC(=O)O)C(=O)O)cc1 [ELN476809, methotrexate]	> 10	0.156	> 10	< 0.078	–	< 0.078	–
COc1cc2c(c(OC)c1OC)-c1ccc(OC)c(=O)cc1[C@@H](NC(C)=O)CC2 [colchicine]	–	–	–	–	–	–	aggresome formation (literature) (aggresome formation): completely abrogated aggresome formation
COC[C@H]1OC(=O)c2coc3c2[C@@]1(C)C1=C(C3=O)[C@@H]2CCC(=O)[C@@]2(C)C[C@H]1OC(C)=O [ELN476646, Wortmannin]	> 10	> 10	1.9	0.75	–	0.75	–
CC(=O)O[C@H]1C(=O)[C@@]2(C)[C@H]([C@H](OC(=O)c3ccccc3)[C@]3(O)C[C@H](OC(=O)[C@H](O)[C@@H](NC(=O)c4ccccc4)c4ccccc4)C(C)=C1C3(C)C)[C@]1(OC(C)=O)CO[C@@H]1C[C@@H]2O [ELN476780, taxol]	> 10	> 10	< 0.078	< 0.156	inhibitors of aggresome formation	< 0.078	–
O=C(N[C@@H](Cc1ccccc1)C(=O)CCl)OCc1ccccc1 [ELN476309, ZPCK]	3.88	0.26	–	–	–	–	TC50 (HEK293 cells): 10 µM; IC50 (Parkin; GFPu assay, Parkin transfected cells, eight 2-fold dilutions 10 uM to about 78 nM, read-out: Parkin IC50): 4.12 µM; IC50 (Parkin; [3]): 4.1 µM
COC(=O)Nc1nc2ccc(C(=O)c3cccs3)cc2[nH]1 [nocodazol]	–	–	–	–	–	–	aggresome formation (literature) (aggresome formation): completely abrogated aggresome formation
Cc1ccc(S(=O)(=O)N[C@@H](Cc2ccccc2)C(=O)CCl)cc1 [TPCK]	–	–	–	–	–	–	inhibition of cAMP dependent protein kinase [1]: inhibit; inhibition of aldehyde dehydrogenase (aldehyde dehydrogenase): inhibit; inhibition of 3-PI-dependent kinase 1 (3-PI-dependent kinase 1): inhibit
CC[C@]1(O)C[C@@H]2CN(CCc3c([nH]c4ccccc34)[C@@](C(=O)OC)(c3cc4c(cc3OC)N(C)[C@H]3[C@@](O)(C(=O)OC)[C@H](OC(C)=O)[C@]5(CC)C=CCN6CC[C@]43[C@@H]65)C2)C1 [vinblastine]	–	–	–	–	–	–	aggresome formation (literature) (aggresome formation): completely abrogated aggresome formation

From US8017348B1, “Assay for Parkinson's Disease therapeutics” (Elan Pharma International Limited, priority 2005, dated 2011)
